Laboratory results taken from patent EP4800018A1, “PAN-KRAS INHIBITOR AND USE THEREOF IN MEDICINES” (Betta Pharmaceuticals Co., Ltd., priority 2023, dated 2025).

Assays:
[1] = tested on: KRAS-G12D mutant tumor cells AGS; test: Cell Proliferation Inhibition Assay (AGS), Cell-titer GLO, 96 h; type: cell-based; settings: Homo sapiens, AGS, 96 h, AGS cells, 96 h incubation, Cell-titer GLO; read-out: AGS(G12D)
Description: KRAS-G12D mutant tumor cells AGS were seeded in low-attachment 96-well plates at a cell density of 1×10^3 cells/well and cultured overnight in a cell culture incubator. […] After incubation at 37°C for 96 h, 50 µL of Cell-titer GLO working solution was added to each well, mixed by shaking, incubated at room temperature for 10 min, and the Luminescence value was read on a multi-function microplate reader. The luminescence data were calculated and converted into inhibition percent. The inhibition percent of cell proliferation was calculated according to the following formula: Inhibition Percent = (MaxValue−MeasuredValue)/(MaxValue−Blank) × 100% [formula] […] Curve fitting was performed using GraphPad Prism software to obtain IC50 values, see Table 1.

[2] = tested on: KRAS-G12V mutant tumor cells SW620; test: Cell Proliferation Inhibition Assay (SW620), Cell-titer GLO, 96 h; type: cell-based; settings: Homo sapiens, SW-620, 96 h, SW620 cells, 96 h incubation, Cell-titer GLO; read-out: SW620(G12V)
Description: KRAS-G12V mutant tumor cells SW620 were seeded in low-attachment 96-well plates at a cell density of 1×10^3 cells/well and cultured overnight in a cell culture incubator. After the cells adhered, the test compounds were added to the 96-well plates at final concentrations of 10000, 2000, 400, 80, 16, 3.2, 0.64, 0.13, 0.03, 0 nM (final concentration of DMSO was 0.5% for all). After incubation at 37°C for 96 h, 50 µL of Cell-titer GLO working solution was added to each well, mixed by shaking, incubated at room temperature for 10 min, and the Luminescence value was read on a multi-function microplate reader. The luminescence data were calculated and converted into inhibition percent. The inhibition percent of cell proliferation was calculated according to the following formula: Inhibition Percent = (MaxValue−MeasuredValue)/(MaxValue−Blank) × 100% [formula]
("Max Value" comes from the 0.5% DMSO control well, "Blank" comes from the blank control well, and "Measured Value" comes from the compound-treated well).
Curve fitting was performed using GraphPad Prism software to obtain IC50 values, see Table 1.

| SMILES | IC50 [1] [nM] | IC50 [2] [nM] |
| --- | --- | --- |
| C[C@@H]1OCCCn2c(c3c4cc(ccc42)-c2csc(n2)C[C@H](NC(=O)[C@H]2C[C@@H]2C(F)F)C(=O)N2CCC[C@H](N2)C(=O)OCC(C)(C)C3)-c2cc(N3CCOC(C)(C)C3)cnc21 [Example 153, (1S,2S)-2-(difluoromethyl)-N-((1^5S,6^3S,4S,Z)-1^2-(2,2-dimethylmorpholino)-1^5,10,10-trimethyl-5 ,7-dioxo-1^8,1^9,6^1,6^2,6^3,6^4,6^5,6^6-octahydro-1^5H,^17H-8-oxa-1(13,15)-pyrido[3',2':7,8][1,5]oxazonino[5,6-a]indola-2(4,2)-thiazola-6(1,3)-pyridazinacycloundecaphane-4-yl)cyclopropane-1-carboxamide] | 1.33 | 0.28 |
| C[C@@H]1OCCCn2c(c3c4cc(ccc42)-c2csc(n2)C[C@H](NC(=O)[C@H]2C[C@@H]2C(F)F)C(=O)N2CCC[C@H](N2)C(=O)OCC(C)(C)C3)-c2cc(N3C[C@@H]4C[C@H]3CN4C)cnc21 [Example 155, (1S,2S)-2-(difluoromethyl)-N-((1^5S,6^3S,4S,Z)-1^5,10,10-trimethyl-1^2-((1S,4S)-5-methyl-2,5-diazabicyclo[2.2.1]heptan-2-yl)-5,7-dioxo-1^8,1^9,6^1,6^26^3,6^4,6^5,6^6-octahydro-1^5H,1^7H-8-oxa-1(13,15)-pyrido[3',2':7,8][1,5]oxazonino[5,6-a]indola-2(4,2)-thiazola-6(1,3)-pyridazinacycloundecaphane-4-yl)cyclopropane-1-carboxamide] | 1.38 | 0.62 |
| C[C@@H]1OCCCn2c(c3c4cc(ccc42)-c2csc(n2)C[C@H](NC(=O)[C@H]2C[C@@H]2C(F)F)C(=O)N2CCC[C@H](N2)C(=O)OCC(C)(C)C3)-c2cc(OC[C@@H]3CCCCN3C)cnc21 [Example 156, (1S,2S)-2-(difluoromethyl)-N-((1^5S,6^3S,4S,Z)-1^5,10,10-trimethyl-1^2-(((S)-1-methylpiperidin-2-yl)methoxy)-5,7-dioxo-1^8,1^9,6^1,6^26^36^4,6^5,6^6-octahydro-1^5H,1^7H-8-oxa-1(13,15)-pyrido[3',2':7,8][1,5]oxazonino[5,6-a]indola-2(4,2)-thiazola-6(1,3)-pyridazinacycloundecaphane-4-yl)cyclopropane-1-carboxamide] | 8.27 | – |
| C[C@@H]1OCCCn2c(c3c4cc(ccc42)-c2csc(n2)C[C@H](NC(=O)[C@H]2C[C@@H]2C(F)F)C(=O)N2CCC[C@H](N2)C(=O)OCC(C)(C)C3)-c2cc(OCCN3CCOCC3)cnc21 [Example 157, (1S,2S)-2-(difluoromethyl)-N-((1^5S,6^3S,4S,Z)-1^5,10,10-trimethyl-1^2-(2-morpholinoethoxy)-5,7-dioxo-1^8,1^9,6^1,6^2,6^3,6^4,6^5,6^6-octahydro-1^5H,1^7H-8-oxa-1(13,15)-pyrido[3',2':7,8][1,5]oxazonino[5,6-a]indola-2(4,2)-thiazola-6(1,3)-pyridazinacycloundecaphane-4-yl)cyclopropane-1-carboxamide] | 3.31 | 0.58 |
| C[C@@H]1OCCCn2c(c3c4cc(ccc42)-c2csc(n2)C[C@H](NC(=O)[C@H]2C[C@@H]2C(F)F)C(=O)N2CCC[C@H](N2)C(=O)OCC(C)(C)C3)-c2cc(N(C)C3CCN(C)C3)cnc21 (stereo partly drawn) [Example 160, (1S,2S)-2-(difluoromethyl)-N-((1^5S,6^3S,4S,Z)-1^5,10,10-trimethyl-1^2-(methyl(1-methylpyrrolidin-3-yl)amino)-5,7-dioxo-1^8,1^9,6^1,6^2,6^3,6^4,6^5,6^6-octahydro-1^5H,1^7H-8-oxa-1(13,15)-pyrido[3',2':7,8][1,5]oxazonino[5,6-a]indola-2(4,2)-thiazola-6(1,3)-pyridazinacycloundecaphane-4-yl)cycloprop ane-1-carboxamide] | 2.25 | 0.98 |
| C[C@@H]1[C@H](C)[C@H]1C(=O)N[C@H]1Cc2nc(cs2)-c2ccc3c(c2)c(c2n3CCCO[C@@H](C)c3ncc(N4C[C@@H](C)O[C@@H](C)C4)cc3-2)CC(C)(C)COC(=O)[C@@H]2CCCN(N2)C1=O [Example 166, (1r,2R,3S)-N-((1^5S,6^3S,4S,Z)-1^2-((2S,6R)-2,6-dimethylmorpholino)-1^5,10,10-trimethyl-5,7-dioxo-1^8,1^9,6^1,6^2,6^3,6^4,6^5,6^6-octahydro-1^5H,1^7H-8-oxa-1(13,15)-pyrido[3',2':7,8][1,5]oxazonino[5,6-a]indola-2(4,2)-thiazola-6(1,3)-pyridazinacycloundecaphane-4-yl)-2,3-dimethylcyclopropane-1-ca rboxamide] | 0.36 | 0.14 |
| C[C@@H]1[C@H](C)[C@H]1C(=O)N[C@H]1Cc2nc(cs2)-c2ccc3c(c2)c(c2n3CCCO[C@@H](C)c3ncc(CN4CCOCC4)cc3-2)CC(C)(C)COC(=O)[C@@H]2CCCN(N2)C1=O [Example 194, (1r,2R,3S)-2,3-dimethyl-N-((1^5S,6^3S,4S,Z)-1^5,10,10-trimethyl-1^2-(morpholinomethyl)-5,7-dioxo-1^8,1^9,6^1,6^2,6^3,6^4,6^5,6^6-octahydro-1^5H,1^7H-8-oxa-1(13,15)-pyrido[3',2':7,8][1,5]oxazonino[5,6-a]indola-2(4,2)-thiazola-6(1,3)-pyridazinacycloundecaphane-4-yl)cyclopropane-1-carboxamide] | 3 | 1.4 |

More lines, now with the values ahead:

| IC50 [1] [nM] | IC50 [2] [nM] | SMILES |
| --- | --- | --- |
| 1.08 | – | CCN1CCN(c2cnc3c(c2)-c2c4c5cc(ccc5n2CCCOC3C)-c2csc(n2)CC(NC(=O)C2C3COCC32)C(=O)N2CCCC(N2)C(=O)OCC(C)(C)C4)CC1 [Example 162, (3R,4r,5S)-N-((1^5S,6^3S,4S,Z)-1^2-(4-ethylpiperazin-1-yl)-1^5,10,10-trimethyl-5,7-dioxo-1^8,1^9,6^1,6^2 ,6^3,6^4,6^5,6^6-octahydro-1^5H,1^7H-8-oxa-1(13,15)-pyrido[3',2':7,8][1,5]oxazonino[5,6-a]indola-2(4, 2)-thiazola-6(1,3)-pyridazinacycloundecaphane-4-yl)tetrahydro-2H-pyran-4-carboxamide] |
| 1.44 | 0.2 | C[C@@H]1OCCCn2c(c3c4cc(ccc42)-c2csc(n2)C[C@H](NC(=O)[C@H]2C[C@@H]2C(F)F)C(=O)N2CCC[C@H](N2)C(=O)OCC(C)(C)C3)-c2cc(N3C[C@@H]4CCN(C)[C@@H]4C3)cnc21 [Example 163, (1S,2S)-2-(difluoromethyl)-N-((1^5S,6^3S,4S,Z)-1^5,10,10-trimethyl-1^2-((3aS,6aS)-1-methylhexahydropyrrolo[3,4-b]pyrrol-5(1H)-yl)-5,7-dioxo-1^8,1^9,6^1,6^2,6^3,6^4,6^5,6^6-octahydro-1^5H,1^7H-8-oxa-1(1 3,15)-pyrido[3',2':7,8][1,5]oxazonino[5,6-a]indola-2(4,2)-thiazola-6(1,3)-pyridazinacycloundecaphane-4-yl)cyclopropane-1-carboxamide] |
| 0.6 | 0.06 | CC1OCCCn2c(c3c4cc(ccc42)-c2csc(n2)CC(NC(=O)C2C(C)C2C)C(=O)N2NC(C(=O)OCC(C)(C)C3)C3CC2C3)-c2cc(N3CCN(C)CC3)nnc21 [Example 195, (1r,2R,3S)-2,3-dimethyl-N-((1^5S,6^4S,4S,Z)-1^5,10,10-trimethyl-1^2-(4-methylpiperazin-1-yl)-5,7-dioxo-1^8,1^9-dihydro-1^5H,1^7H-8-oxa-6^2,6^3-diaza-1(13,15)-pyridazino[4',3':7,8][1,5]oxazonino[5,6-a]indola-2(4,2)-thiazola-6(2,4)-bicyclo[3.1.1]heptanacycloundecaphane-4-yl)cyclopropane-1-car boxamide] |
| 39 | 4.1 | CC1OCCCn2c(c3c4cc(ccc42)-c2csc(n2)CC(NC(=O)C2COC2)C(=O)N2NC(C(=O)OCC(C)(C)C3)C3CC2C3)-c2cc(N3CCN(C)CC3)cnc21 [Example 199, N-((1^5S,6^4S,4S,Z)-1^5,10,10-trimethyl-1^2-(4-methylpiperazin-1-yl)-5,7-dioxo-1^8,1^9-dihydro-1^5H, 1 ^7H-8-oxa-6^2,6^3-diaza-1(13,15)-pyrido[3',2':7,8][1,5]oxazonino[5,6-a]indola-2(4,2)-thiazola-6(2,4)-bicyclo[3.1.1]heptanacycloundecaphane-4-yl)oxetane-3-carboxamide] |
| 2.1 | 3.3 | CCN1CCN(c2cnc3c(c2)-c2c4c5cc(ccc5n2C[C@@H](OC)CO[C@H]3C)-c2csc(n2)C[C@H](NC(=O)[C@H]2C[C@@H]2C)C(=O)N2CCC[C@H](N2)C(=O)OCC(C)(C)C4)CC1 [Example 203, (1S,2S)-N-((1^5S,1^8R,6^3S,4S,Z)-1^2-(4-ethylpiperazin-1-yl)-1^8-methoxy-1^5,10,10-trimethyl-5,7-dioxo-1^8,1^9,6^1,6^26^3,6^4,6^5,6^6-octahydro-1^5H,1^7H-8-oxa-1(13,15)-pyrido[3',2':7,8][1,5]oxazonino[5,6-a]indola-2(4,2)-thiazola-6(1,3)-pyridazinacycloundecaphane-4-yl)-2-methylcyclopropane-1-carb oxamide] |
